Series [1] deals with C-C chemokine receptor type 8 (Homo sapiens, UniProt P51685). Put plainly: Antagonist activity at human recombinant CCR8 expressed in RBL cells assessed as inhibition of I-309-induced intracellular calcium mobilization by FLIPR assay. It counts as functional, cell-based.
Series [2] deals with Liver microsomes. Put plainly: Intrinsic clearance in human liver microsome. It counts as ADME. In general terms: Liver microsomes are vesicles of endoplasmic reticulum, rich in cytochrome P450 enzymes.
For series [3], the system named is Liver microsomes. Put plainly: Intrinsic clearance in rat liver microsome. It counts as ADME.
Series [4] can be described thus: Volume of distribution at steady state in mouse at 1 mg/kg, iv or 2 mg/kg, po. It counts as ADME, organism-based. To be noted: in vivo, read-out: Vdss.
Series [5] can be described thus: Oral bioavailability in mouse at 2 mg/kg. It counts as ADME, organism-based. To be noted: in vivo.
The nature of series [6]: Clearance in mouse blood at 1 mg/kg, iv or 2 mg/kg, po. It counts as ADME, organism-based.
Series [7] can be described thus: Half life in mouse at 1 mg/kg, iv or 2 mg/kg, po. It counts as ADME, organism-based. To be noted: in vivo.
The species named for another series is Homo sapiens. The series can be described thus: Selectivity for hERG over CCR8. For orientation: The hERG channel carries a current that helps repolarise heart muscle cells.
Series [8] deals with T1, C-C chemokine receptor type 8 (Mus musculus) (UniProt P56484).
T1 sequence (whole entry): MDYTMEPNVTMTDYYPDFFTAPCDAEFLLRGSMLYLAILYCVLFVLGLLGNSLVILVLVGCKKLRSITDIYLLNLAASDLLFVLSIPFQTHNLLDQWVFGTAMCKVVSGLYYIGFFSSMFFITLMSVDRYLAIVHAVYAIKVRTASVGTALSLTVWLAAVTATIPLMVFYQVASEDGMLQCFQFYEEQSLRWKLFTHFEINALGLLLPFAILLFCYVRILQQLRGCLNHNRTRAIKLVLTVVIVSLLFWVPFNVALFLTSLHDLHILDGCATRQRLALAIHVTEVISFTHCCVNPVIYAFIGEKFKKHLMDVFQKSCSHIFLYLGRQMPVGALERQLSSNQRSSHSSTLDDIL
Put plainly: Antagonist activity at mouse CCR8 by FLIPR assay. It counts as functional.

The next series is filed under the species Rattus norvegicus. Put plainly: Antagonist activity at rat CCR8 by FLIPR assay. It counts as functional.
For a further series, the species on record is Cavia porcellus. The series can be described thus: Antagonist activity at guinea pig CCR8 by FLIPR assay. It counts as functional.
Series [9] concerns the target Voltage-gated inwardly rectifying potassium channel KCNH2 (Homo sapiens, UniProt Q12809). Put plainly: Inhibition of hERG. It counts as toxicity.

The IC50 is the point on the concentration scale where inhibition reaches its midpoint. The bioavailability is dose-corrected exposure relative to a reference, in per cent. Read a low bioavailability as little systemic uptake. One may read the half-life as the time needed for the level to fall by half in the phase considered. Higher therefore signals slow loss.

The source made the active and inactive calls.

Chain of C-C chemokine receptor type 8 (P51685 whole entry): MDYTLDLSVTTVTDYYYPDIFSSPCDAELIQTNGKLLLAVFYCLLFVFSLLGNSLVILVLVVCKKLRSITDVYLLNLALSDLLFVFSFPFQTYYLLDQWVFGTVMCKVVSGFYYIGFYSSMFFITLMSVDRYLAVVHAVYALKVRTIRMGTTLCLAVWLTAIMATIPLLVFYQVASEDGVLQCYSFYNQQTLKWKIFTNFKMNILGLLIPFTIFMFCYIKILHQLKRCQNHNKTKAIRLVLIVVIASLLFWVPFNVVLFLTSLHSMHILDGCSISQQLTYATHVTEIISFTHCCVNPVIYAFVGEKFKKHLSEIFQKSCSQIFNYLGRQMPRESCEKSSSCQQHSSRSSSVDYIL
Chain of Voltage-gated inwardly rectifying potassium channel KCNH2 (Q12809 whole entry): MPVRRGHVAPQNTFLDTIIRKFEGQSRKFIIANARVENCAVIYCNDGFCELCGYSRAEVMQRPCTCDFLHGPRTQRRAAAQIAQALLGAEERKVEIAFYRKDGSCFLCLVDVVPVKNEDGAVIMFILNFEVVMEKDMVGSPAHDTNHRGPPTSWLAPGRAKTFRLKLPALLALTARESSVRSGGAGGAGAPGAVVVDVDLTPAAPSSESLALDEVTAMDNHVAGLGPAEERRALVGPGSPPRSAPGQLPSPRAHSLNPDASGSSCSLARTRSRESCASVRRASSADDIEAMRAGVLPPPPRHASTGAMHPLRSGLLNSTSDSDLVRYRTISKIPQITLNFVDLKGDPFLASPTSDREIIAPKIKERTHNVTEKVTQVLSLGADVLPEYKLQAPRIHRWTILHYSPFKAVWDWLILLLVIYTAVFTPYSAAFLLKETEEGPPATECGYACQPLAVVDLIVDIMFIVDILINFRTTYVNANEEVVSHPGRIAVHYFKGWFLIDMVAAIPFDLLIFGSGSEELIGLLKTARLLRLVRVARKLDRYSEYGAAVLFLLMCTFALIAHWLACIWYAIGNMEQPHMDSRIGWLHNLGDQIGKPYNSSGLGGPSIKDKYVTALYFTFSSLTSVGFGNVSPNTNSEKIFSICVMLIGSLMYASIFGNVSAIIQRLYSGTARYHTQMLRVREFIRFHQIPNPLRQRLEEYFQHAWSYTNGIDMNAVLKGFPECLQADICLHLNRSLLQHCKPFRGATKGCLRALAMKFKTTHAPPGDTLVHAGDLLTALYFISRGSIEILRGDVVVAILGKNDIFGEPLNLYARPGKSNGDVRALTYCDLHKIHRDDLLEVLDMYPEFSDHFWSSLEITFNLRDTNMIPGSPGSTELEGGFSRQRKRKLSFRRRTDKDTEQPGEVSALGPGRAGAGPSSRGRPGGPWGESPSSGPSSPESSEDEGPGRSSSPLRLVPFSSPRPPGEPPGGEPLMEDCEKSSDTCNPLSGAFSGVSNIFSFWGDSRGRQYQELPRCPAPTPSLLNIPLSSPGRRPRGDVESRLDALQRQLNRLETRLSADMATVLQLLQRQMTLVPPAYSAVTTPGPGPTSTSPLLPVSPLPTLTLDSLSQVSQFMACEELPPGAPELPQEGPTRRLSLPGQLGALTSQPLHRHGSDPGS

As for `COc1ccc2nccc(C3CN(C4CCN(Cc5ccc(Cl)c(Cl)c5)CC4)C(=O)O3)c2c1` (centres undefined), the IC50 in series [1] was 0.126 µM. Regarding `O=C1OC(c2ccncc2)CN1C1CCN(Cc2cc3ccccc3[nH]2)CC1` (centres undefined), in [1], the IC50 is above 50.1 µM. Same read-out and setting: for `COc1ccc2nccc(C3CN(C4CCN(Cc5cccc(Cl)c5)CC4)C(=O)O3)c2c1` (centres undefined) the value was 6.31 µM; for `COc1ccc(CN2CCC(N3CC(c4ccnc5ccc(OC)cc45)OC3=O)CC2)cc1` (centres undefined), 1.26 µM; for `COc1ccc2nccc(C3CN(C4CCCCN(Cc5cc6ccccc6[nH]5)C4)C(=O)O3)c2c1` (centres undefined), above 50.1 µM. As to `COc1ccc2nccc([C@@H]3CN(C4CCN(Cc5cc6ccccc6[nH]5)CC4)C(=O)O3)c2c1`, the CL in the series on Liver microsomes [2] and with Liver microsomes [3] was 7 mL/min/g in each case. Also, the Vd in series [4] turned out to be 2.4 L/kg. In series [5], this compound returned a bioavailability of 18%. The same compound gave a clearance in [6] of 2.28 L/h/kg. In addition, the half-life in [7] was 1 h. In addition, the Selectivity ratio in the series filed under Homo sapiens is 79. The IC50 was 0.02 µM in series [1] and 1.58 µM in series [9]. Further, the result (in series [8]; in the series listed under Rattus norvegicus; in the series listed under Cavia porcellus) was inactive.

Regarding `COc1ccc2nccc(C3CN(C4CCN(Cc5ccc(C)c(C)c5)CC4)C(=O)O3)c2c1` (centres undefined), the Selectivity ratio in the series listed under Homo sapiens was 158. Besides, the IC50 was 0.0398 µM in series [1] and 6.31 µM in series [9].

Take `COc1ccc2nccc(C3CN(C4CCN(Cc5ccc(Br)cc5)CC4)C(=O)O3)c2c1` (centres undefined): the IC50 in series [1] was 0.0501 µM.

For `O=C1OC(c2cnc3ccccc3c2)CN1C1CCN(Cc2cc3ccccc3[nH]2)CC1` (centres undefined), the IC50 in series [1] is above 50.1 µM. For `COc1ccc2nccc(C3CN(C4CCN(C(=O)c5ccc(Cl)c(Cl)c5)CC4)C(=O)O3)c2c1` (centres undefined), the IC50 in series [1] was 6.31 µM.

As for `COc1ccc2nccc(C3CN(C4CCN(Cc5cc6ccccc6[nH]5)CC4)C(=O)O3)c2c1` (centres undefined), in series [1], the IC50 was 0.0251 µM. Still for that read-out and setting: for `COc1ccc2nccc(C3CN(C4CCN(S(=O)(=O)c5ccc(Cl)c(Cl)c5)CC4)C(=O)O3)c2c1` (centres undefined) the value was above 50.1 µM; for `CCCCCCN1CCC(N2CC(c3ccnc4ccc(OC)cc34)OC2=O)CC1` (centres undefined), 0.501 µM; for `COc1ccc2nccc(C3CN(C4CCN(Cc5cc6ccccc6[nH]5)CC4)C(=O)O3)c2n1` (centres undefined), 0.0316 µM. Take `COc1ccc2nccc(C3CN(CC4CCN(Cc5cc6ccccc6[nH]5)CC4)C(=O)O3)c2c1` (centres undefined): in series [1], the IC50 was above 50.1 µM. Regarding `COc1ccc2nccc(C3CN(C4CCN(Cc5ccccc5)CC4)C(=O)O3)c2c1` (centres undefined), the IC50 in [1] was 12.6 µM. Still for that read-out and setting: for `COc1ccc2nccc(C3CN(C4CCN(Cc5c[nH]c6ccccc56)CC4)C(=O)O3)c2c1` (centres undefined) the value was above 50.1 µM. For the compound `O=C1OC(c2cccc3ccccc23)CN1C1CCN(Cc2cc3ccccc3[nH]2)CC1` (centres undefined), the IC50 in series [1] was above 50.1 µM. Turning to `COc1ccc2nccc(C3CN(C4CCN(Cc5ccc(C#N)cc5)CC4)C(=O)O3)c2c1` (centres undefined), the IC50 in series [1] is 12.6 µM.

For the compound `COc1ccc2nccc(C3CN(C4CCN(C)CC4)C(=O)O3)c2c1` (centres undefined), in series [1], the IC50 is above 50.1 µM. As to `COc1ccc2nccc(C3CN(C4CCN(Cc5ccc(-c6ccccc6)cc5)CC4)C(=O)O3)c2c1` (centres undefined), the IC50 in series [1] is above 50.1 µM.

In the case of `COc1ccc2nccc(C3CN(CCCNCc4cc5ccccc5[nH]4)C(=O)O3)c2c1` (centres undefined), in [1], the IC50 was 1.58 µM.

Regarding `COc1ccc2nccc(C3CN(C4CCN(Cc5ccc(Cl)cc5)CC4)C(=O)O3)c2c1` (centres undefined), the half-inhibitory concentration (IC50) in series [1] was 0.631 µM. Same read-out and setting: for `COc1ccc2nccc(C3CN(CC4CCCN(Cc5cc6ccccc6[nH]5)C4)C(=O)O3)c2c1` (centres undefined) the value was above 50.1 µM; for `COc1ccc2nccc(C3CN(C4CCN(CCCc5ccccc5)CC4)C(=O)O3)c2c1` (centres undefined), 0.251 µM. In the case of `O=C1OC(c2ccnc3ccccc23)CN1C1CCN(Cc2cc3ccccc3[nH]2)CC1` (centres undefined), the 50% inhibitory concentration (IC50) in [1] is 1 µM. Consider `COc1ccc2nccc(C3CN(C4CCN(Cc5cc6ccccc6n5C)CC4)C(=O)O3)c2c1` (centres undefined), for which the concentration for half-maximal inhibition (IC50) in series [1] is 3.16 µM.

Take `COc1ccc2nccc(C3CN(CCCN(C)Cc4cc5ccccc5[nH]4)C(=O)O3)c2c1` (centres undefined): the IC50 in series [1] was 6.31 µM. The same measure, in the same setting: for `COc1ccc2nccc(C3CN(C4CCN(Cc5ccc6ccccc6c5)CC4)C(=O)O3)c2c1` (centres undefined) the value was 1.26 µM; for `COc1ccc2nccc(C3CN(C4CCN(Cc5ccccc5Cl)CC4)C(=O)O3)c2c1` (centres undefined), above 50.1 µM.

Take `COc1ccc2nccc(C3CN(C4CCN(Cc5cc6ccccc6[nH]5)C4)C(=O)O3)c2c1` (centres undefined): the IC50 in [1] was above 50.1 µM. Regarding `O=C1OC(c2ccc3ccccc3n2)CN1C1CCN(Cc2cc3ccccc3[nH]2)CC1` (centres undefined), the IC50 in [1] is above 50.1 µM. As for `COc1ccc2nccc(C3CN(C4CCN(CC5CCCCC5)CC4)C(=O)O3)c2c1` (centres undefined), in [1], the IC50 was 7.94 µM. Still for that read-out and setting: for `COc1ccc2nccc(C3CN(C4CCN(Cc5cc6ccccc6s5)CC4)C(=O)O3)c2c1` (centres undefined) the value was 0.794 µM; for `COc1ccc2nccc(C3CN(C4CCN(Cc5cc6ccccc6o5)CC4)C(=O)O3)c2c1` (centres undefined), 1.26 µM; for `COc1ccc2nccc(C3CN(C4CCN(Cc5ccc6ccccc6n5)CC4)C(=O)O3)c2c1` (centres undefined), 3.16 µM.

Values taken from ChEMBL document CHEMBL1139124, “Oxazolidinones as novel human CCR8 antagonists” (Bioorg Med Chem Lett, 2007).
